The text below walks through data of the Kinase Knowledgebase extract (Sharma et al. 2016).

The target in this experiment is EGFR (human) (UniProt P00533).
EGFR (human), sequence (P00533 whole entry, looked up): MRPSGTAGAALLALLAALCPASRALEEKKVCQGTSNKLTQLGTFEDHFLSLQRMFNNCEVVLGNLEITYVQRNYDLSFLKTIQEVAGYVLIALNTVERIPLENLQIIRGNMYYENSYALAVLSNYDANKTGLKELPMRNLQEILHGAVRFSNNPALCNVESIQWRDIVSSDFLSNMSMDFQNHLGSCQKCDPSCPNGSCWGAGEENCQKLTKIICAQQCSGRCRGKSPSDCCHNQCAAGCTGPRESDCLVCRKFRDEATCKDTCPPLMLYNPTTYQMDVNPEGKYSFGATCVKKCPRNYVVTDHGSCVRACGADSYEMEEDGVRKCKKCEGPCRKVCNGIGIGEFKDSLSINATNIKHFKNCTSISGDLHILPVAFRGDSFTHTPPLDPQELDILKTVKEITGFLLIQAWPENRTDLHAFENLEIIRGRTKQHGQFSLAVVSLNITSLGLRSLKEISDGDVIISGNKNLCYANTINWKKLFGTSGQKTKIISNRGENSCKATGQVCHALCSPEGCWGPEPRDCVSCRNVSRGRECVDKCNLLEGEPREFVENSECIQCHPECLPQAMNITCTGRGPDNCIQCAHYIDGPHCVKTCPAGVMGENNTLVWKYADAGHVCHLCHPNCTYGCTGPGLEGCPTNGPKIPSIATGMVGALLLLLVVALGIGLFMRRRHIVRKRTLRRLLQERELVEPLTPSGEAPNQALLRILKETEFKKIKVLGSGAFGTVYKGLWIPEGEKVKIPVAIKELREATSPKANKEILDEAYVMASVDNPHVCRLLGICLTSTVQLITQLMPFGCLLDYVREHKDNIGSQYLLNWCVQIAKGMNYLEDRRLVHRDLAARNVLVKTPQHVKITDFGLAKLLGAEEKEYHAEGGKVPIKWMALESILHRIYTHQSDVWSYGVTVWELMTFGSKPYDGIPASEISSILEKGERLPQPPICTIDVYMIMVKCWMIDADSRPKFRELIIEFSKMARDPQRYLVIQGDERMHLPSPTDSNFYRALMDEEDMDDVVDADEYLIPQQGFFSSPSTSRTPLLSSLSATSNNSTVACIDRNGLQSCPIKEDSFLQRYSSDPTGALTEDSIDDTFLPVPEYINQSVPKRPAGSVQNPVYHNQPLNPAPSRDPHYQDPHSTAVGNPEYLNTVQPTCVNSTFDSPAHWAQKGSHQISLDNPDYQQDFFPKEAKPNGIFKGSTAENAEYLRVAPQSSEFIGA

Broadly, the IC50 is the concentration needed to halve the response being measured. On to `O=C1Nc2ccccc2C1=NNc1nc2nonc2nc1Nc1ccc(F)c(Cl)c1`, for which the IC50 was less than 1 µM.

The compound `COc1cc(C=NNc2nc3nonc3nc2Nc2ccccc2F)cc([N+](=O)[O-])c1O` came in with an IC50 of less than 1 µM. With `Oc1ccc(C=NNc2nc3nonc3nc2Nc2ccc(Cl)c(Cl)c2)c(O)c1` the figure was less than 1 µM. To `O=C(O)c1ccc(-c2ccc(C=NNc3nc4nonc4nc3Nc3ccc(F)cc3)o2)cc1` belongs less than 1 µM. To `Clc1ccc(Nc2nc3nonc3nc2NN=Cc2ccco2)cc1Cl` belongs less than 1 µM; to `O=C(O)c1cc(-c2ccc(C=NNc3nc4nonc4nc3Nc3ccccc3F)o2)ccc1Cl`, less than 1 µM. Regarding `O=C(O)c1cc(-c2ccc(C=NNc3nc4nonc4nc3Nc3ccccc3F)o2)ccc1O`, the IC50 is less than 1 µM.

As for `Cc1cccc(Nc2nc3nonc3nc2NN=Cc2ccc(-c3ccc(Cl)c(C(=O)O)c3)o2)c1C`, the IC50 was less than 1 µM. `Oc1c(Br)cc(Br)cc1C=NNc1nc2nonc2nc1Nc1cccc(Cl)c1` registered an IC50 of less than 1 µM. To `Fc1ccc(Nc2nc3nonc3nc2NN=Cc2ccc(-c3ccc(Cl)cc3Cl)o2)cc1` belongs less than 1 µM. With `O=C(O)c1cccc(-c2ccc(C=NNc3nc4nonc4nc3Nc3cccc(Cl)c3)o2)c1` the figure was less than 1 µM. As for `COc1ccc(O)c(C=NNc2nc3nonc3nc2Nc2ccc(Cl)c(Cl)c2)c1`, the IC50 is less than 1 µM. On to `O=c1[nH]c2ccc(Nc3nc4nonc4nc3NN=Cc3cc(I)cc(I)c3OCc3ccc(Cl)cc3Cl)cc2[nH]1`, for which the IC50 was less than 1 µM. With `Clc1ccc(Nc2nc3nonc3nc2NN=Cc2ccc(-c3ccccc3)o2)cc1Cl` the figure was less than 1 µM; with `Clc1ccc(Nc2nc3nonc3nc2NN=Cc2cc3ccccc3o2)cc1Cl`, less than 1 µM. Regarding `O=C(O)c1cccc(C=NNc2nc3nonc3nc2Nc2ccc(Cl)c(Cl)c2)c1`, the IC50 is less than 1 µM. With `O=[N+]([O-])c1cccc(-c2ccc(C=NNc3nc4nonc4nc3Nc3cccc(Cl)c3)o2)c1` the figure was less than 1 µM; with `O=C(O)c1ccc(-c2ccc(C=NNc3nc4nonc4nc3Nc3ccc(F)c(Cl)c3)o2)cc1`, less than 1 µM. `COc1cc(Br)cc(C=NNc2nc3nonc3nc2Nc2cccc(Cl)c2)c1O` registered an IC50 of less than 1 µM. In turn, `O=C1Nc2ccccc2C1=NNc1nc2nonc2nc1Nc1ccc(Cl)c(Cl)c1` displayed an IC50 of less than 1 µM. As to `Clc1ccc(-c2ccc(C=NNc3nc4nonc4nc3Nc3ccc(Cl)c(Cl)c3)o2)cc1`, the IC50 was less than 1 µM. To `O=[N+]([O-])c1cccc(-c2ccc(C=NNc3nc4nonc4nc3Nc3ccc(F)cc3)o2)c1` belongs less than 1 µM; to `COc1ccc(C=NNc2nc3nonc3nc2Nc2ccc(Cl)c(Cl)c2)c(O)c1`, less than 1 µM; to `O=C(O)c1cc(-c2ccc(C=NNc3nc4nonc4nc3Nc3ccc(F)cc3)o2)ccc1Cl`, less than 1 µM. With `O=C(O)c1cccc(C=NNc2nc3nonc3nc2Nc2ccc(F)c(Cl)c2)c1` the figure was less than 1 µM; with `COc1cccc(C=NNc2nc3nonc3nc2Nc2ccc(Cl)c(Cl)c2)c1O`, less than 1 µM.

In turn, `O=C(O)c1cc(-c2ccc(C=NNc3nc4nonc4nc3Nc3ccc(F)c(Cl)c3)o2)ccc1Cl` returned a 50% inhibitory concentration (IC50) of less than 1 µM. With `NC(=O)c1cccc(-c2ccc(C=NNc3nc4nonc4nc3Nc3ccc(F)c(Cl)c3)o2)c1` the figure was less than 1 µM; with `O=C(O)c1cc(-c2ccc(C=NNc3nc4nonc4nc3Nc3ccc(Cl)c(Cl)c3)o2)ccc1Cl`, less than 1 µM; with `O=C(O)c1cc(-c2ccc(C=NNc3nc4nonc4nc3Nc3ccc(Br)cc3)o2)ccc1Cl`, less than 1 µM. In turn, `O=C(O)c1ccc(C=NNc2nc3nonc3nc2Nc2ccc(F)c(Cl)c2)cc1` came in with an IC50 of less than 1 µM. Regarding `Fc1ccc(Nc2nc3nonc3nc2NN=Cc2ccc(-c3ccccc3)o2)cc1Cl`, the IC50 is less than 1 µM. For the compound `Fc1ccc(Nc2nc3nonc3nc2NN=Cc2ccc(-c3ccc(Cl)cc3)o2)cc1Cl`, the IC50 was less than 1 µM. The compound `Oc1c(Br)cc(Cl)cc1C=NNc1nc2nonc2nc1Nc1ccc(Cl)c(Cl)c1` registered an IC50 of less than 1 µM. To `Cc1cccc(Nc2nc3nonc3nc2NN=Cc2ccc(-c3cccc(C(=O)O)c3)o2)c1` belongs less than 1 µM; to `Fc1ccc(Nc2nc3nonc3nc2NN=Cc2cc3ccccc3o2)cc1Cl`, less than 1 µM. For the compound `NC(=O)c1cccc(-c2ccc(C=NNc3nc4nonc4nc3Nc3ccc(Cl)c(Cl)c3)o2)c1`, the IC50 is less than 1 µM. To `Oc1c(Br)cc(Br)cc1C=NNc1nc2nonc2nc1Nc1ccc(F)c(Cl)c1` belongs less than 1 µM; to `CCOC(=O)c1ccccc1C=NNc1nc2nonc2nc1Nc1ccc(Cl)c(Cl)c1`, less than 1 µM. With `O=C(O)c1ccc(-c2ccc(C=NNc3nc4nonc4nc3Nc3ccc(Cl)c(Cl)c3)o2)cc1`, the IC50 was less than 1 µM. With `O=C(O)c1cccc(-c2ccc(C=NNc3nc4nonc4nc3Nc3ccc(Cl)c(Cl)c3)o2)c1` the figure was less than 1 µM.
